Test results published in patent US20240376085A1 (Janssen Pharmaceutica NV, priority 2021, published 2024).

Experiments:
[1] = system: IL-17A-induced G-CSF production in human normal keratinocyte (NHK); test: NHK assay: IL-17A-induced G-CSF production in normal human keratinocytes; format: cell-based; settings: Homo sapiens, Keratinocyte, 24 h, IL-17A 5 ng/mL, average if tested more than once
How it was run: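 Stimulus rhIL-17A 5 ng/mL final, premixed 1 h rt with compound; adult NHK, 5% FBS, 0.2% DMSO. Viability by CellTiter-Glo vs DMSO.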

[2] = molecular target: T1, IL-17A : IL-17RA binding (Homo sapiens, UniProt Q16552, K93Q); test: IL-17A(FLAG-tagged):IL-17RA(His-tagged) binding disruption Eu-HTRF assay, Protocol 1; settings: FLAG-IL-17A 2.5 nM at 2x final concentration; average if tested more than once
T1 construct: Name: IL-17A-Flag
T1 sequence (Q16552 with tags, fused parts or gaps K93Q): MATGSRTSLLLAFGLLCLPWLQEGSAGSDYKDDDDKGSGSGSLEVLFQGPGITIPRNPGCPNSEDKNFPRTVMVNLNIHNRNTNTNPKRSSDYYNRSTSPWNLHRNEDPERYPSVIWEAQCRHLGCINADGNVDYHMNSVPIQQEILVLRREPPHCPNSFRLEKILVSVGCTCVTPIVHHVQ
How it was run: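 IC50 came from a one-site competition fit of the acceptor/donor (665/620 nm) HTRF ratio. His-tagged IL-17RA, Eu-anti-FLAG and D2-anti-His were added after a 1 h rt compound preincubation with FLAG-tagged IL-17A dimer in PBS/0.01% Triton X-100, followed by 2 h at rt before reading.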

IC50 [2] | Compound | IC50 [1]
> 100 nM | C[C@@H](NC(=O)CCC(F)(F)F)c1ccc2[nH]c([C@@H](NC(=O)c3cc(CCC(F)(F)F)on3)C3CCC(F)(F)CC3)nc2c1 [Example 217, N—((S)-(4,4-Difluorocyclohexyl)(5-((R)-1-(4,4,4-trifluorobutanamido)ethyl)-1H-benzo[d]imidazol-2-yl)methyl)-5-(3,3,3-trifluoropropyl)isoxazole-3-carboxamide] | > 100 nM
50 to 100 nM | C[C@@H](NC(=O)CCC(F)(F)F)c1ccc2[nH]c([C@@H](NC(=O)c3ncnn3CCC(F)(F)F)C3CCC(F)(F)CC3)nc2c1 [Example 220, N—((S)-(4,4-Difluorocyclohexyl)(5-((R)-1-(4,4,4-trifluorobutanamido)ethyl)-1H-benzo[d]imidazol-2-yl)methyl)-1-(3,3,3-trifluoropropyl)-1H-1,2,4-triazole-5-carboxamide] | > 100 nM
> 100 nM | C[C@@H](NC(=O)CCC(F)(F)F)c1ccc2[nH]c([C@@H](NC(=O)c3ccc(CCC(F)(F)F)s3)C3CCC(F)(F)CC3)nc2c1 [Example 221, N—((S)-(4,4-Difluorocyclohexyl)(5-((R)-1-(4,4,4-trifluorobutanamido)ethyl)-1H-benzo[d]imidazol-2-yl)methyl)-5-(3,3,3-trifluoropropyl)thiophene-2-carboxamide] | > 100 nM
> 100 nM | C[C@@H](NC(=O)CCC(F)(F)F)c1ccc2[nH]c([C@@H](NC(=O)c3cnc(CCC(F)(F)F)s3)C3CCC(F)(F)CC3)nc2c1 [Example 222, N—((S)-(4,4-Difluorocyclohexyl)(5-((R)-1-(4,4,4-trifluorobutanamido)ethyl)-1H-benzo[d]imidazol-2-yl)methyl)-2-(3,3,3-trifluoropropyl)thiazole-5-carboxamide] | > 100 nM
> 100 nM | C[C@@H](NC(=O)CCC(F)(F)F)c1ccc2[nH]c([C@@H](NC(=O)c3csc(CCC(F)(F)F)n3)C3CCC(F)(F)CC3)nc2c1 [Example 224, N—((S)-(4,4-Difluorocyclohexyl)(5-((R)-1-(4,4,4-trifluorobutanamido)ethyl)-1H-benzo[d]imidazol-2-yl)methyl)-2-(3,3,3-trifluoropropyl)thiazole-4-carboxamide] | > 100 nM
> 100 nM | C[C@@H](NC(=O)CCC(F)(F)F)c1ccc2[nH]c([C@@H](NC(=O)c3coc(CCC(F)(F)F)n3)C3CCC(F)(F)CC3)nc2c1 [Example 225, N—((S)-(4,4-Difluorocyclohexyl)(5-((R)-1-(4,4,4-trifluorobutanamido)ethyl)-1H-benzo[d]imidazol-2-yl)methyl)-2-(3,3,3-trifluoropropyl)oxazole-4-carboxamide] | > 100 nM
> 100 nM | C[C@@H](NC(=O)CCC(F)(F)F)c1ccc2[nH]c([C@@H](NC(=O)c3cn(CCC(F)(F)F)cn3)C3CCC(F)(F)CC3)nc2c1 [Example 226, N—((S)-(4,4-Difluorocyclohexyl)(5-((R)-1-(4,4,4-trifluorobutanamido)ethyl)-1H-benzo[d]imidazol-2-yl)methyl)-1-(3,3,3-trifluoropropyl)-1H-imidazole-4-carboxamide] | > 100 nM
> 100 nM | C[C@@H](NC(=O)CCC(F)(F)F)c1ccc2[nH]c([C@@H](NC(=O)c3nccn3CCC(F)(F)F)C3CCC(F)(F)CC3)nc2c1 [Example 227, N—((S)-(4,4-Difluorocyclohexyl)(5-((R)-1-(4,4,4-trifluorobutanamido)ethyl)-1H-benzo[d]imidazol-2-yl)methyl)-1-(3,3,3-trifluoropropyl)-1H-imidazole-2-carboxamide] | > 100 nM
> 100 nM | C[C@@H](NC(=O)CCC(F)(F)F)c1ccc2[nH]c([C@@H](NC(=O)c3ncn(CCC(F)(F)F)n3)C3CCC(F)(F)CC3)nc2c1 [Example 228, N—((S)-(4,4-Difluorocyclohexyl)(5-((R)-1-(4,4,4-trifluorobutanamido)ethyl)-1H-benzo[d]imidazol-2-yl)methyl)-1-(3,3,3-trifluoropropyl)-1H-1,2,4-triazole-3-carboxamide] | > 100 nM
< 50 nM | Cc1nonc1C(=O)N[C@@H](CC(C)(C)C(F)F)c1nc2ccc([C@H](NC(=O)CC3CC(F)(F)C3)C3CC3)cc2[nH]1 [Example 233, N—((S)-1-(6-((R)-Cyclopropyl(2-(3,3-difluorocyclobutyl)acetamido)methyl)-1H-benzo[d]imidazol-2-yl)-4,4-difluoro-3,3-dimethylbutyl)-4-methyl-1,2,5-oxadiazole-3-carboxamide] | > 100 nM
50 to 100 nM | CC(C)n1nccc1C(=O)N[C@@H](CC(C)(C)C(F)F)c1nc2ccc([C@H](NC(=O)CC3CC(F)(F)C3)C3CC3)cc2[nH]1 [Example 234, N—((S)-1-(6-((R)-Cyclopropyl(2-(3,3-difluorocyclobutyl)acetamido)methyl)-1H-benzo[d]imidazol-2-yl)-4,4-difluoro-3,3-dimethylbutyl)-1-isopropyl-1H-pyrazole-5-carboxamide] | 50 to 100 nM
> 100 nM | Cc1nonc1C(=O)N[C@@H](C[C@H]1CCC(F)(F)C1)c1nc2ccc([C@H](NC(=O)CC3CC(F)(F)C3)C3CC3)cc2[nH]1 [Example 235, N—((S)-1-(6-((R)-Cyclopropyl(2-(3,3-difluorocyclobutyl)acetamido)methyl)-1H-benzo[d]imidazol-2-yl)-2-((R)-3,3-difluorocyclopentyl)ethyl)-4-methyl-1,2,5-oxadiazole-3-carboxamide] | > 100 nM
> 100 nM | CC(C)n1nccc1C(=O)N[C@@H](C[C@H]1CCC(F)(F)C1)c1nc2ccc([C@H](NC(=O)CC3CC(F)(F)C3)C3CC3)cc2[nH]1 [Example 236, N—((S)-1-(6-((R)-Cyclopropyl(2-(3,3-difluorocyclobutyl)acetamido)methyl)-1H-benzo[d]imidazol-2-yl)-2-((R)-3,3-difluorocyclopentyl)ethyl)-1-isopropyl-1H-pyrazole-5-carboxamide] | > 100 nM
< 50 nM | Cc1nonc1C(=O)N[C@H](c1nc2ccc([C@H](NC(=O)CC3CC(F)(F)C3)C3CC3)cc2[nH]1)[C@@H]1C[C@@H]2[C@H](C1)C2(F)F [Example 237, N—((S)-(6-((R)-Cyclopropyl(2-(3,3-difluorocyclobutyl)acetamido)methyl)-1H-benzo[d]imidazol-2-yl)((1R,3s,5S)-6,6-difluorobicyclo[3.1.0]hexan-3-yl)methyl)-4-methyl-1,2,5-oxadiazole-3-carboxamide] | 50 to 100 nM
< 50 nM | CC(C)n1nccc1C(=O)N[C@H](c1nc2ccc([C@H](NC(=O)CC3CC(F)(F)C3)C3CC3)cc2[nH]1)[C@@H]1C[C@@H]2[C@H](C1)C2(F)F [Example 238, N—((S)-(6-((R)-Cyclopropyl(2-(3,3-difluorocyclobutyl)acetamido)methyl)-1H-benzo[d]imidazol-2-yl)((1R,3s,5S)-6,6-difluorobicyclo[3.1.0]hexan-3-yl)methyl)-1-isopropyl-1H-pyrazole-5-carboxamide] | < 50 nM
< 50 nM | O=C(CC1CC(F)(F)C1)N[C@@H](c1ccc2nc([C@@H](NC(=O)c3nonc3C3CC3)[C@@H]3C[C@@H]4[C@H](C3)C4(F)F)[nH]c2c1)C1CC1 [Example 239, 4-Cyclopropyl-N—((S)-(6-((R)-cyclopropyl(2-(3,3-difluorocyclobutyl)acetamido)methyl)-1H-benzo[d]imidazol-2-yl)((1R,3s,5S)-6,6-difluorobicyclo[3.1.0]hexan-3-yl)methyl)-1,2,5-oxadiazole-3-carboxamide] | < 50 nM
< 50 nM | Cc1nonc1C(=O)N[C@H](c1nc2ccc([C@H](NC(=O)CC3CC(F)(F)C3)C3CC3)cc2[nH]1)[C@H]1C[C@@H]2[C@H](C1)C2(F)F [Example 240, N—((S)-(6-((R)-Cyclopropyl(2-(3,3-difluorocyclobutyl)acetamido)methyl)-1H-benzo[d]imidazol-2-yl)((1R,3r,5S)-6,6-difluorobicyclo[3.1.0]hexan-3-yl)methyl)-4-methyl-1,2,5-oxadiazole-3-carboxamide] | > 100 nM
50 to 100 nM | CC(C)n1nccc1C(=O)N[C@H](c1nc2ccc([C@H](NC(=O)CC3CC(F)(F)C3)C3CC3)cc2[nH]1)[C@H]1C[C@@H]2[C@H](C1)C2(F)F [Example 241, N—((S)-(6-((R)-Cyclopropyl(2-(3,3-difluorocyclobutyl)acetamido)methyl)-1H-benzo[d]imidazol-2-yl)((1R,3r,5S)-6,6-difluorobicyclo[3.1.0]hexan-3-yl)methyl)-1-isopropyl-1H-pyrazole-5-carboxamide] | < 50 nM
> 100 nM | Cc1nonc1C(=O)N[C@@H](CC1(C(F)(F)F)CC1)c1nc2ccc([C@H](NC(=O)CC3CC(F)(F)C3)C3CC3)cc2[nH]1 [Example 242, N—((S)-1-(6-((R)-Cyclopropyl(2-(3,3-difluorocyclobutyl)acetamido)methyl)-1H-benzo[d]imidazol-2-yl)-2-(1-(trifluoromethyl)cyclopropyl)ethyl)-4-methyl-1,2,5-oxadiazole-3-carboxamide] | > 100 nM
> 100 nM | CC(C)n1nccc1C(=O)N[C@@H](CC1(C(F)(F)F)CC1)c1nc2ccc([C@H](NC(=O)CC3CC(F)(F)C3)C3CC3)cc2[nH]1 [Example 243, N—((S)-1-(6-((R)-Cyclopropyl(2-(3,3-difluorocyclobutyl)acetamido)methyl)-1H-benzo[d]imidazol-2-yl)-2-(1-(trifluoromethyl)cyclopropyl)ethyl)-1-isopropyl-1H-pyrazole-5-carboxamide] | 50 to 100 nM
